Measurements published in ChEMBL document CHEMBL1201862, “PubChem BioAssay data set” (2004).
Calls of active or inactive are those of the source.

How the values were obtained:
[1] = target: T1, Rac GTPase-activating protein 1 (Homo sapiens, UniProt Q9H0H5); assay: blockers of MgcRacGAP-driven Rac1 GTP hydrolysis – biochemical, ADP Hunter fluorescence, primary and confirmatory, confirmation (AID 624330); format: functional
T1 sequence (Q9H0H5 whole entry): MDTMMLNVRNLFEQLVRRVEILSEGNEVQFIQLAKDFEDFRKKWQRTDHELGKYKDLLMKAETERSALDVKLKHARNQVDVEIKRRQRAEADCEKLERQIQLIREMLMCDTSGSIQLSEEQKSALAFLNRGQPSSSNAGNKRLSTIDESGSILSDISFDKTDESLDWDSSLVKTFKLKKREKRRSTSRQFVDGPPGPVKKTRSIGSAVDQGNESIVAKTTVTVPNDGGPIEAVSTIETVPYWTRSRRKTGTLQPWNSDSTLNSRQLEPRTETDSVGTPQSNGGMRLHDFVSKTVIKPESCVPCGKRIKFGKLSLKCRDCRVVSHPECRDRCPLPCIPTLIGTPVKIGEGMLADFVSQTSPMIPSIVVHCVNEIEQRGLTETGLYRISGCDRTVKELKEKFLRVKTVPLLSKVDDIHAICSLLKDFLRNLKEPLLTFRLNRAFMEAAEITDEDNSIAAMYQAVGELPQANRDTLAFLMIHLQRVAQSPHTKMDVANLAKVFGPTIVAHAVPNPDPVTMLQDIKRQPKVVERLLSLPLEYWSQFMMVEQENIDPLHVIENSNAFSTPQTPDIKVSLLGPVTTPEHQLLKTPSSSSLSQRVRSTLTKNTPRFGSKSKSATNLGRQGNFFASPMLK

Streptokinase A = target: T2, Streptokinase A (Streptococcus pyogenes serotype M1, UniProt P10520); assay: viability-normalized secreted streptokinase activity reduction – plasminogen activation absorbance, OD405, dose response (AID 1914); format: functional, Streptococcus pyogenes M1 GAS;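 also: secreted streptokinase activity via plasminogen activation per viability signal from cell pellet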
T2 sequence (P10520 whole entry): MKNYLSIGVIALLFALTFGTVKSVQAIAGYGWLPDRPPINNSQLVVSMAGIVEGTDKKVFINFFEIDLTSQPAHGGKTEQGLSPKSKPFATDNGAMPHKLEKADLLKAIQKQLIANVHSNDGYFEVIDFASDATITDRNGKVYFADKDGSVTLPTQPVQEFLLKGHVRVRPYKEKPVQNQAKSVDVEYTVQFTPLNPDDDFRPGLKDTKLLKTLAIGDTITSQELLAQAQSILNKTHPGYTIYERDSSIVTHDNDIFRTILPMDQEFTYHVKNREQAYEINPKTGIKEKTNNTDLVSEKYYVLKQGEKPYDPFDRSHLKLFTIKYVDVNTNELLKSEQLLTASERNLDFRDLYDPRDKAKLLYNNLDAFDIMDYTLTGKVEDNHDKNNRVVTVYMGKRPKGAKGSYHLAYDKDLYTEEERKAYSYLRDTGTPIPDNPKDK

[2] = test system: Streptococcus sp. 'group A'; assay: Streptococcus pyogenes SK(-)GAS viability under kanamycin – luminescence, BacTiterGlo, confirmation, counter-screen for streptokinase expression inhibitor project, dose response (AID 1900); format: functional, organism-based
Streptococcus = assay: GAS UMAA2166 growth inhibition – luminescence, BacTiterGlo, counter-screen for streptokinase expression inhibitor project, dose response (AID 1915); format: functional, organism-based;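 also: potency for reduction of bacterial viability or growth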
[3] = target: T3, Heat shock factor protein 1 (Mus musculus, UniProt P38532); assay: decrease of HSF1-responsive luciferase luminescence – cell-based, NIH3T3, dose retest, confirmation (AID 2382); format: functional;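 also: NIH3T3 fibroblasts with HSF1-driven luciferase reporter stressed by proteasome inhibitor MG132; luminescence from HSF1-driven luciferase expression after 8 hours of MG132 stress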
T3 sequence (P38532 whole entry): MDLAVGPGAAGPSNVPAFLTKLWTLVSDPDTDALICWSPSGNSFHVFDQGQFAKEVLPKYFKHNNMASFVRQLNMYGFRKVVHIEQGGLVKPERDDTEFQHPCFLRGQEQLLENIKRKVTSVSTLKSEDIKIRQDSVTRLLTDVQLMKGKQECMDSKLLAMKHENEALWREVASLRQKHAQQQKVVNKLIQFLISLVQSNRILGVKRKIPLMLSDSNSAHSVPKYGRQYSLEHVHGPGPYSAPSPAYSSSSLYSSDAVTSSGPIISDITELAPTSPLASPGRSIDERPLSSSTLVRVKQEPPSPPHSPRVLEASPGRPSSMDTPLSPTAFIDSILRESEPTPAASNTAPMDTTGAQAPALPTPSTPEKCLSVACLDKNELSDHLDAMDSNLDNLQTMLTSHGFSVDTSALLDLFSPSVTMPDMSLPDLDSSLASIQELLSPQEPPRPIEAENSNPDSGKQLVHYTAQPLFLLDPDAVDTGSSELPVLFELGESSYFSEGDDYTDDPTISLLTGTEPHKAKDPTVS

Paired box protein Pax-8 = Paired box protein Pax-8 (Homo sapiens, UniProt Q06710); assay: PAX8 transcriptional activity inhibition in RMG-I – RMG-I cells, luciferase, cherry-pick, dose response (AID 687027); format: functional, cell-based;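 also: luciferase reporter driven by Pax8 target thyroperoxidase promoter measured by SteadyGlo luminescence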
[4] = target: T4, Zinc finger protein mex-5 (Caenorhabditis elegans, UniProt Q9XUB2); assay: potency of MEX-5 RNA-binding blockers – biochemical, C. elegans, fluorescence polarization, dose response (AID 1960)
T4 sequence (Q9XUB2 whole entry): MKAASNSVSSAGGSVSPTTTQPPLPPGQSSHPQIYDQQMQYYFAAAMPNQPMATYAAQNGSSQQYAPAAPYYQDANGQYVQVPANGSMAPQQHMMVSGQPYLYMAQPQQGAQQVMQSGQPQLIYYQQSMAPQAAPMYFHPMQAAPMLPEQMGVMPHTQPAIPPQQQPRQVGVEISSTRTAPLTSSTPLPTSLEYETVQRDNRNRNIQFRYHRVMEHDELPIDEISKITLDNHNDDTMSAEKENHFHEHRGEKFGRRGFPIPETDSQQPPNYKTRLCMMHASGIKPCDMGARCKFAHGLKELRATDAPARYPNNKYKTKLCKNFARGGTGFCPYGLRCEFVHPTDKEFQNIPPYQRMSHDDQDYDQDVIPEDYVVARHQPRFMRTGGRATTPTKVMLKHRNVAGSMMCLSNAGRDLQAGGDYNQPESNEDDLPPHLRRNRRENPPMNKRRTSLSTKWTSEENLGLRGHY

[5] = target: T5, RNA-binding protein pos-1 (Caenorhabditis elegans, UniProt G5EF15); assay: disruptors of C. elegans POS-1 RNA interaction – biochemical, fluorescence polarization, dose response (AID 1964);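 also: purified POS-1 fused to maltose binding protein made in E. coli; potency of compounds blocking POS-1 binding to fluorescent RNA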
T5 sequence (G5EF15 whole entry): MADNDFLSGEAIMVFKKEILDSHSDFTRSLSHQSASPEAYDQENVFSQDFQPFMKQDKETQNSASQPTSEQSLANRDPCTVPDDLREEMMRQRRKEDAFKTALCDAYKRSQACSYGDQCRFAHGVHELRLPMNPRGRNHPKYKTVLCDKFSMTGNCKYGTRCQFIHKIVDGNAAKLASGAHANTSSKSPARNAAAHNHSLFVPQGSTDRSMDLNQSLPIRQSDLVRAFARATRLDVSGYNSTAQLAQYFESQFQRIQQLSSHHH

Cytochrome P450 2C9 = Cytochrome P450 2C9 (Homo sapiens, UniProt P11712)
[6] = target: T6, Corticotropin-releasing factor receptor 2/Corticotropin-releasing factor-binding protein (Homo sapiens, UniProt P24387+Q13324); assay: activators of CRF receptor 2 with binding protein – uHTS hits, confirmation (AID 602473); format: functional; conditions: read-out: EC50_Mean
T6 sequence (Q13324 whole entry): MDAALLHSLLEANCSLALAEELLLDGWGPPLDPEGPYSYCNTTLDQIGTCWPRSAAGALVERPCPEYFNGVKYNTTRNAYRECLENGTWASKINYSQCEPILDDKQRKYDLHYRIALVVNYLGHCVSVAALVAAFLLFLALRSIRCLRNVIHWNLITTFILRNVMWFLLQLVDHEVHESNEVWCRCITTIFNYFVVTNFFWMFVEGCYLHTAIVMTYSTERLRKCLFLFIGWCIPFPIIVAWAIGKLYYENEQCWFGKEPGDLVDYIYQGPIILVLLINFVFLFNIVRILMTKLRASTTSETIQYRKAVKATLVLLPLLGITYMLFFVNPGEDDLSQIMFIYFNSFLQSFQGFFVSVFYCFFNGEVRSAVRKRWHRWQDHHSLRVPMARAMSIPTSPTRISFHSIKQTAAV
T6 sequence (P24387 whole entry): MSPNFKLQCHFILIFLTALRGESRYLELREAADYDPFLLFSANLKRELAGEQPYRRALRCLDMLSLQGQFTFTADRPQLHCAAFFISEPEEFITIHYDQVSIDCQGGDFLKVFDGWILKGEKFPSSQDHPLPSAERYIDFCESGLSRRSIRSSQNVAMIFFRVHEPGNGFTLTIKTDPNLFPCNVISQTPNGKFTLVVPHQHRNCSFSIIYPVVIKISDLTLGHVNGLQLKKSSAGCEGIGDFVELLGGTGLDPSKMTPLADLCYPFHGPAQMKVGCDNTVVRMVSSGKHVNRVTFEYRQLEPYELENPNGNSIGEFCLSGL

[7] = target: T6, Corticotropin-releasing factor receptor 2/Corticotropin-releasing factor-binding protein; assay: Dose Response confirmation of uHTS hits for small molecule antagonists of the CRF-binding protein and CRF-R2 receptor complex.; format: functional; conditions: read-out: IC50_Mean
Cytochrome P450 2C19 = Cytochrome P450 2C19 (Homo sapiens, UniProt P33261); assay: Cytochrome panel assay with activity outcomes. Panel member name: p450-cyp2c19 Compounds with AC50 equal or less than 10 uM are considered active; format: functional; conditions: read-out: AC50
Cytochrome P450 1A2 = target: T7, Cytochrome P450 1A2 (Homo sapiens, UniProt P05177);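 also: PubChem cytochrome P450 panel assay, CYP1A2 panel member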
T7 sequence (P05177 whole entry): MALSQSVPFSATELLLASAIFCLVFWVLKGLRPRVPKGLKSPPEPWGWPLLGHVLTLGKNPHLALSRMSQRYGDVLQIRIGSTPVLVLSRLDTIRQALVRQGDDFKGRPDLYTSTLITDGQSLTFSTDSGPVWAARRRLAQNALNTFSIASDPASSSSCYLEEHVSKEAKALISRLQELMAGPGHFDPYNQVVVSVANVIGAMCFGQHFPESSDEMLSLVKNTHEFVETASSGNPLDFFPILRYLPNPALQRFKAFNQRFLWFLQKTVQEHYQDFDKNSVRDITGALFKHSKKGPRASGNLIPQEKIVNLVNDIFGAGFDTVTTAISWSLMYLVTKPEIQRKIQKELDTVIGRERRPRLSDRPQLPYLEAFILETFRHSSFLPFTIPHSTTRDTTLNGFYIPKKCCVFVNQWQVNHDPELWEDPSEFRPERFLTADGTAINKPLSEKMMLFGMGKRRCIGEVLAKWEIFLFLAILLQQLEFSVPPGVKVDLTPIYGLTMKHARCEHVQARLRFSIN

Chain of Paired box protein Pax-8 (Q06710 whole entry): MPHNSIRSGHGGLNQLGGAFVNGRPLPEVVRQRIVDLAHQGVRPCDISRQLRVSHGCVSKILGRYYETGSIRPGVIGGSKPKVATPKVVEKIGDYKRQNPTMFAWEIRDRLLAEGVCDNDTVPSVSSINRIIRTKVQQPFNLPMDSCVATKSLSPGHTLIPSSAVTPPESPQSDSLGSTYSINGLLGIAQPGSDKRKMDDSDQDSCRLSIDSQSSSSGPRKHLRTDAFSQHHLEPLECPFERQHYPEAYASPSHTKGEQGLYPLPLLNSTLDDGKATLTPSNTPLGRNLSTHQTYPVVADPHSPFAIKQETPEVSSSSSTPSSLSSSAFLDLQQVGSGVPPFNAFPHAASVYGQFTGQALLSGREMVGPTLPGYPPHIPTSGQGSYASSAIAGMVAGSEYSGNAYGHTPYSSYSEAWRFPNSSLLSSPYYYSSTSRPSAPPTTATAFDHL
Chain of Cytochrome P450 2C19 (P33261 whole entry): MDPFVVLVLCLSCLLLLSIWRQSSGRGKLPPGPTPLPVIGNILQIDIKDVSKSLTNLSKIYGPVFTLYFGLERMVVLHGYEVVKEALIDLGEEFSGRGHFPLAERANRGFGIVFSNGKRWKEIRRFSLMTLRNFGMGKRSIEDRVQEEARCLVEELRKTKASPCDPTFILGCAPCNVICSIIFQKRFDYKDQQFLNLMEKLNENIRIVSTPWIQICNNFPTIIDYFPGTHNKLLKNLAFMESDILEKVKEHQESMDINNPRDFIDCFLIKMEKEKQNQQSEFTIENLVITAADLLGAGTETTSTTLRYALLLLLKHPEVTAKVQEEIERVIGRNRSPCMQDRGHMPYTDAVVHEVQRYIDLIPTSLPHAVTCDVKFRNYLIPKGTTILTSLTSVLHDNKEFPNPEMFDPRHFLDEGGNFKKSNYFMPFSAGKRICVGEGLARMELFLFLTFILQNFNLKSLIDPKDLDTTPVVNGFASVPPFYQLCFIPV
Chain of Cytochrome P450 2C9 (P11712 whole entry): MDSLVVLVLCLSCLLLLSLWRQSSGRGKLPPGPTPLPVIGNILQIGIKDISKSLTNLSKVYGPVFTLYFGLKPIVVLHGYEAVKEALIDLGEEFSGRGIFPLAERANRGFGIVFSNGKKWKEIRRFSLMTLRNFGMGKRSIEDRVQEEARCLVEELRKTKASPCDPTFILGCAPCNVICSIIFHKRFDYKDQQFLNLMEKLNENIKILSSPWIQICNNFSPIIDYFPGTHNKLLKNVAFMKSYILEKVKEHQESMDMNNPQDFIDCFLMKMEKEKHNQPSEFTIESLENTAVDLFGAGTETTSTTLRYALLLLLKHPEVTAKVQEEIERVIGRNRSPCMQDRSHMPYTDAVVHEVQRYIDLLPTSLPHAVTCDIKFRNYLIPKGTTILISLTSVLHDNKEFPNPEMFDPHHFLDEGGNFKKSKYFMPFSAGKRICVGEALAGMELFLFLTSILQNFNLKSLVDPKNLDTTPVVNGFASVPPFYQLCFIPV

## COc1ccc(NC2CCCN(C(=O)c3csc(C)n3)C2)cc1 (configuration not stated)
[1]
  IC50: 107 µM (active)

## Cc1cc2nc(N=C(N)NC(=O)C(C)C)nc(C)c2cc1C
Streptokinase A
  EC50: > 150 µM (not active)

## Cc1cc(/C=C2/C(=N)N3C(=NC2=O)SN=C3S(C)(=O)=O)c(C)n1-c1ccc(F)cc1
[2]
  EC50: 9.96 µM (active)
Streptokinase A
  EC50: > 150 µM (not active)
Streptococcus
  EC50: > 150 µM (not active)

## Oc1ccc(N2CCN(Cc3cc4c(cc3Br)OCCO4)CC2)cc1
[1]
  IC50: 66.7 µM (active)

## O=C1N=C(N/N=C/c2cccs2)SC1Cc1ccc(Cl)c(Cl)c1 (configuration not stated)
[3]
  EC50: 21 µM (active)
Streptokinase A
  EC50: > 150 µM (not active)
Streptococcus
  EC50: > 150 µM (not active)

## C[C@@H]1CCCCO[C@H](CN(C)Cc2ccc(Cl)c(Cl)c2)[C@@H](C)CN([C@@H](C)CO)C(=O)c2cc(NS(=O)(=O)c3ccc(Cl)cc3)ccc2O1
Paired box protein Pax-8
  AC50: 10.2 µM (active)

## Cc1ccc(S(=O)(=O)Nc2ccc3c(c2)C(=O)N([C@H](C)CO)C[C@@H](C)[C@H](CN(C)Cc2ccc(C(F)(F)F)cc2)OCCCC[C@@H](C)O3)cc1
Paired box protein Pax-8
  AC50: 8.45 µM (active)

## Cc1noc(C)c1-c1nnc(-c2ccc(OC(F)(F)F)cc2)o1
[2]
  EC50: > 150 µM (not active)
Streptokinase A
  EC50: > 150 µM (not active)
Streptococcus
  EC50: > 150 µM (not active)

## Cc1ccc(N2C(=O)NC(=O)/C(=C/c3cnn(-c4ccc(C)cc4)c3)C2=O)cc1
[4]
  EC50: 67.5 µM (active)
[3]
  EC50: > 195 µM (not active)
[5]
  EC50: > 300 µM (not active)

## C[C@@H]1CN([C@H](C)CO)C(=O)c2cc(NC(=O)Nc3ccc(F)cc3)ccc2O[C@@H](C)CCCCO[C@H]1CN(C)S(=O)(=O)c1ccc(F)cc1
Paired box protein Pax-8
  AC50: 8.62 µM (active)

## OC(C/N=c1\sc2ccccc2n1CC(O)COc1ccccc1)COc1ccccc1 (configuration not stated)
[2]
  EC50: 8.85 µM (active)
Streptokinase A
  EC50: 10.3 µM (active)
Streptococcus
  EC50: > 150 µM (not active)

## O=C(Nc1ccc([N+](=O)[O-])cn1)c1cc(-c2cccc(Br)c2)nc2ccccc12
Paired box protein Pax-8
  AC50: 45.6 µM (active)

## O=C(O)c1ccccc1-n1cccc1C(=O)O
[4]
  EC50: > 300 µM (not active)
[5]
  EC50: > 300 µM (not active)

## O=C(c1ccccc1F)N1CCN(Cc2ccc3c(c2)OCO3)CC1
[1]
  IC50: 125 µM (active)

## CCOC(=O)c1c(O)cc(C)cc1Nc1ccccc1
[2]
  EC50: > 150 µM (not active)
Streptokinase A
  EC50: 139 µM (active)
Streptococcus
  EC50: > 150 µM (not active)

## COc1cc(NC(=O)CSc2ncnc3sc4c(c23)CCCC4)c(C(=O)O)cc1OC
[2]
  EC50: 20.8 µM (active)
Streptokinase A
  EC50: > 150 µM (not active)
Streptococcus
  EC50: > 150 µM (not active)

## COC(=O)CCC(=O)OC1(C)C(=O)C=C2C=C(C3CC3)N(c3ccc(CO)cc3)C=C2C1=O (configuration not stated)
[4]
  EC50: 23.5 µM (active)
[5]
  EC50: 25.5 µM (active)

## Cc1sc2ncnc(OCC(=O)NC(C)C)c2c1C
Cytochrome P450 2C9
  AC50: 22.4 µM (inconclusive)
[6]
  EC50: > 53 µM (inactive)
[7]
  IC50: > 47.1 µM (inactive)
Cytochrome P450 2C19
  AC50: 20 µM (inconclusive)
Cytochrome P450 1A2
  AC50: 31.6 µM (inconclusive)

## COCCn1c(N)c(NCc2ccccc2)c(=O)[nH]c1=O
[4]
  EC50: 3.03 µM (active)
[5]
  EC50: 5.47 µM (inconclusive)

## Cc1cc([N+](=O)[O-])cc2c1NCC1CC=CC21 (configuration not stated)
[4]
  EC50: > 300 µM (not active)
[5]
  EC50: > 300 µM (not active)
